# Data as given in US20240150325A1, “NOVEL COMPOUND AS PROTEIN KINASE INHIBITORS” (LG CHEM, LTD., priority 2021, published 2024).
# pIC50: −log10 of the molar value.
# Assays:
# MET = MET (Homo sapiens, UniProt P08581); assay: Evaluation of inhibitory activity to MET; assay type: biochemical
# Description: (§1) Experimental Example 1. Evaluation of Inhibitory Activity to RON and MET
# RON = RON (Homo sapiens, UniProt Q04912); assay: Evaluation of inhibitory activity to RON; assay type: biochemical
# Description: as §1
# Chain of MET (P08581 25-1390): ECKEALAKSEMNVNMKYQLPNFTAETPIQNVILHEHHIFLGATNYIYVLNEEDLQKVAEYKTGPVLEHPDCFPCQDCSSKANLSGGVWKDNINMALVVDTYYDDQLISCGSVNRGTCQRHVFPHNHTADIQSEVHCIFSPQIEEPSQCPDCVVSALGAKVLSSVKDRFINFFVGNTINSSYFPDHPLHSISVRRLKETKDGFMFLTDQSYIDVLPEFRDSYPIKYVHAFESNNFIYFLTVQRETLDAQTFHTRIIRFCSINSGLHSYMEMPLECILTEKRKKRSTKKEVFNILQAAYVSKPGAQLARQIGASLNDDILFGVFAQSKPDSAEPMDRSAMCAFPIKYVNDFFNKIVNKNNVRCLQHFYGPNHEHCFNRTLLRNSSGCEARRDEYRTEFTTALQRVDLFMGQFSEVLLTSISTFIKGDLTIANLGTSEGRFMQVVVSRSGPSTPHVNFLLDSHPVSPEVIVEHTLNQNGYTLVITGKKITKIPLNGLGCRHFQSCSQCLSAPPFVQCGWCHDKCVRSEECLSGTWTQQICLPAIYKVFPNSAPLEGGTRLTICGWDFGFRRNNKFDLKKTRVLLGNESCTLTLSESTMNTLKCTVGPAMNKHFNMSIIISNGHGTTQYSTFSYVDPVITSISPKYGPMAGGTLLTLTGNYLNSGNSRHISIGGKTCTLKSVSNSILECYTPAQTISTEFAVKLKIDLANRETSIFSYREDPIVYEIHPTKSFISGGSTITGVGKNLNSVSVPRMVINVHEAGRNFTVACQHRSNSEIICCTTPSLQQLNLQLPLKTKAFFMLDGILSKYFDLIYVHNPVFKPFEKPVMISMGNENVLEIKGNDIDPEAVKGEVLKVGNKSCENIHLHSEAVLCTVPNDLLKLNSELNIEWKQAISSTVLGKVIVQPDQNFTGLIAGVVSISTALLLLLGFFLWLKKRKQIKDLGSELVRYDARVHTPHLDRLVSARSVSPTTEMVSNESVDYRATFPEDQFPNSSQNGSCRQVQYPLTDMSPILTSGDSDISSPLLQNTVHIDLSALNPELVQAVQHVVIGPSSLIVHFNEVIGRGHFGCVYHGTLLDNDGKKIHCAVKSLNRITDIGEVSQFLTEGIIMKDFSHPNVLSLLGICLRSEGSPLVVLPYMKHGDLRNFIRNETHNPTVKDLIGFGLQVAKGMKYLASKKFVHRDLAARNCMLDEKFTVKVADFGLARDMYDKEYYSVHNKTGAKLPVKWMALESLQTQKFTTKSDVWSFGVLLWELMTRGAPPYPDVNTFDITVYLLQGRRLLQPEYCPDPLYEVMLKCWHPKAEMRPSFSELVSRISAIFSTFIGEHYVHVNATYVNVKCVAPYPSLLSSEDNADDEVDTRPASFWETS
# Chain of RON (Q04912 25-1400): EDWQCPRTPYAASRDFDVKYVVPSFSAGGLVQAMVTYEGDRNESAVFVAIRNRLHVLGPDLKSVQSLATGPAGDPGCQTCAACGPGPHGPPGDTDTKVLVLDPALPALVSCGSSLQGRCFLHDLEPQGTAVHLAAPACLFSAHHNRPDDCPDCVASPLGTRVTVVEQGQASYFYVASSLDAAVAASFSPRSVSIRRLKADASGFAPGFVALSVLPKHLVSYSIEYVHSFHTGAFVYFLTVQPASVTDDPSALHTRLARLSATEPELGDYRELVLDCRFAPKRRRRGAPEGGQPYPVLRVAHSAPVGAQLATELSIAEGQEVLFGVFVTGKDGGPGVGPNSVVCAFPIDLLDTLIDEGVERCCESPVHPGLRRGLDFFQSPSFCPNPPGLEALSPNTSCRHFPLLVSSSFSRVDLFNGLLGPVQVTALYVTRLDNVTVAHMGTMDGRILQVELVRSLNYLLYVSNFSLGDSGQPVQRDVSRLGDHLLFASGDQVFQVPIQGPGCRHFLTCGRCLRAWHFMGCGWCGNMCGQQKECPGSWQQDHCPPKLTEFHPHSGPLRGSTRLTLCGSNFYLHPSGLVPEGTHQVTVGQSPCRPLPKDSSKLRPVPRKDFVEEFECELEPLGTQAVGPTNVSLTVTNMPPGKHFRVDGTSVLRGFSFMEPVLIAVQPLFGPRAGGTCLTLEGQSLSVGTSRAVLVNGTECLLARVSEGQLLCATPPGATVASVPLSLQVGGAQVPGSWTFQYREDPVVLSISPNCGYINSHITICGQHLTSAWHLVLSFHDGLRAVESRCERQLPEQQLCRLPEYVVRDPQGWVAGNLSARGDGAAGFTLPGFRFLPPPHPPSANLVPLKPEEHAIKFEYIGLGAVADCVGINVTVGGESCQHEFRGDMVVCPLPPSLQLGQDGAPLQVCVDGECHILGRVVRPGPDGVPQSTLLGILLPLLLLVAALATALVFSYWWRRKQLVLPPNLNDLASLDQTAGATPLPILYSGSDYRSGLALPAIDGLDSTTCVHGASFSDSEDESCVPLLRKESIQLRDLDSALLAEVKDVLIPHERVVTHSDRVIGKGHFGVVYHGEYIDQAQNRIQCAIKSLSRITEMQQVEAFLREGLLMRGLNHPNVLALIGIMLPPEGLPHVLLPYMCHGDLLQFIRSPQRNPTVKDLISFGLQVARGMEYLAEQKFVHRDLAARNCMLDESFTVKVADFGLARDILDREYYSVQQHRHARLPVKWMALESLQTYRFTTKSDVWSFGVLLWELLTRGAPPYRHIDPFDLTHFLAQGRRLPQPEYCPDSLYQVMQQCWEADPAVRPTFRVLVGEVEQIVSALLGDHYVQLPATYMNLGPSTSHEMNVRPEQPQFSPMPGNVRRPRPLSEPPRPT
pIC50 (MET),pIC50 (RON),SMILES
7.00,5.84,"Cc1ccc(C(=O)Nc2ccc(Oc3ccc(O)c(-c4cc[nH]n4)c3)c(F)c2)c(=O)n1-c1ccc(F)cc1 [Example 58, N-(3-Fluoro-4-(4-hydroxy-3-(1H-pyrazol-3-yl)phenoxy)phenyl)-1-(4-fluorophenyl)-6-methyl-2-oxo-1,2-dihydropyridin-3-carboxamide]"
6.75,6.05,"Cn1cc(-c2cc(C(=O)Nc3ccc(Oc4ccc(O)c(-c5ccnc(N)n5)c4)c(F)c3)c(=O)n(-c3ccc(F)cc3)c2)cn1 [Example 47, N-(4-(3-(2-aminopyrimidin-4-yl)-4-hydroxyphenoxy)-3-fluorophenyl)-1-(4-fluorophenyl)-5-(1-methyl-1H-pyrazol-4-yl)-2-oxo-1,2-dihydropyridin-3-carboxamide]"
6.23,6.88,"COc1ccn(-c2ccc(F)cc2)c(=O)c1C(=O)Nc1ccc(-c2ccc(O)c(-c3ccnc(N)n3)c2)c(F)c1 [Example 2, N-(3′-(2-aminopyrimidin-4-yl)-2-fluoro-4′-hydroxy-[1,1′-biphenyl]-4-yl)-1-(4-fluorophenyl)-4-methoxy-2-oxo-1,2-dihydropyridin-3-carboxamide]"
6.55,5.47,"O=C(Nc1ccc(F)cc1)C1(C(=O)Nc2ccc(Oc3ccc(O)c(-c4ccncn4)c3)c(F)c2)CC1 [Example 56, N-(3-fluoro-4-(4-hydroxy-3-(pyrimidin-4-yl)phenoxy)phenyl)-N-(4-fluorophenyl)cyclopropan-1,1-dicarboxamide]"
6.74,5.93,"CCOc1ccn(-c2ccc(F)cc2)c(=O)c1C(=O)Nc1ccc(Nc2ccc(O)c(-c3ccnc(N)n3)c2)c(F)c1 [Example 28, N-(4-((3-(2-aminopyrimidin-4-yl)-4-hydroxyphenyl)amino)-3-fluorophenyl)-4-ethoxy-1-(4-fluorophenyl)-2-oxo-1,2-dihydropyridin-3-carboxamide]"
6.26,5.64,"CCOc1ccn(-c2ccc(F)cc2)c(=O)c1C(=O)Nc1ccc(Nc2ccc(O)c(-c3ccnc(N)n3)c2)cc1F [Example 34, N-(4-((3-(2-aminopyrimidin-4-yl)-4-hydroxyphenyl)amino)-2-fluorophenyl)-4-ethoxy-1-(4-fluorophenyl)-2-oxo-1,2-dihydropyridin-3-carboxamide]"
6.94,6.06,"Cc1c(C(=O)Nc2ccc(Oc3ccc(O)c(-c4ccnc(N)n4)c3)c(F)c2)c(=O)n(-c2ccccc2)n1CC(C)(C)O [Example 52, N-(4-(3-(2-aminopyrimidin-4-yl)-4-hydroxyphenoxy)-3-fluorophenyl)-1-(2-hydroxy-2-methylpropyl)-5-methyl-3-oxo-2-phenyl-2,3-dihydro-1H-pyrazol-4-carboxamide]"
7.19,7.64,"Nc1nccc(-c2cc(Oc3ccc(NC(=O)c4cc(C5CC5)cn(-c5ccc(F)cc5)c4=O)cc3F)ccc2O)n1 [Example 48, N-(4-(3-(2-aminopyrimidin-4-yl)-4-hydroxyphenoxy)-3-fluorophenyl)-5-cyclopropyl-1-(4-fluorophenyl)-2-oxo-1,2-dihydropyridin-3-carboxamide]"
7.92,6.88,"Nc1nccc(-c2cc(Oc3ccc(NC(=O)c4ccc(CO)n(-c5ccc(F)cc5)c4=O)cc3F)ccc2O)n1 [Example 50, N-(4-(3-(2-aminopyrimidin-4-yl)-4-hydroxyphenoxy)-3-fluorophenyl)-1-(4-fluorophenyl)-6-(hydroxymethyl)-2-oxo-1,2-dihydropyridin-3-carboxamide]"
7.27,6.62,"Nc1nccc(-c2cc(Oc3ccc(NC(=O)c4cccn(-c5ccc(F)cc5)c4=O)cc3F)ccc2O)n1 [Example 46, N-(4-(3-(2-aminopyrimidin-4-yl)-4-hydroxyphenoxy)-3-fluorophenyl)-1-(4-fluorophenyl)-2-oxo-1,2-dihydropyridin-3-carboxamide]"
5.68,6.08,Nc1nccc(-c2cc(-c3ccc(NC(=O)c4cc(C5CC5)cn(-c5ccc(F)cc5)c4=O)cc3F)ccc2O)n1 [Example 8]
< 5.00,5.64,"CCOc1ccn(-c2ccc(F)cc2)c(=O)c1C(=O)Nc1ccc(-c2ccc(OC)c(-c3cnc(N)nc3)c2)c(F)c1 [Example 17, N-(3′-(2-aminopyrimidin-5-yl)-2-fluoro-4′-methoxy-[1,1′-biphenyl]-4-yl)-4-ethoxy-1-(4-fluorophenyl)-2-oxo-1,2-dihydropyridin-3-carboxamide]"
7.17,6.79,"Nc1nccc(-c2cc(Oc3ccc(NC(=O)c4ccc(C(F)(F)F)n(-c5ccc(F)cc5)c4=O)cc3F)ccc2O)n1 [Example 49, N-(4-(3-(2-aminopyrimidin-4-yl)-4-hydroxyphenoxy)-3-fluorophenyl)-1-(4-fluorophenyl)-2-oxo-6-(trifluoromethyl)-1,2-dihydropyridin-3-carboxamide]"
5.77,6.07,"Nc1nccc(-c2cc(-c3ccc(NC(=O)c4ccc(CO)n(-c5ccc(F)cc5)c4=O)cc3F)ccc2O)n1 [Example 10, N-(3′-(2-aminopyrimidin-4-yl)-2-fluoro-4′-hydroxy-[1,1′-biphenyl]-4-yl)-1-(4-fluorophenyl)-6-(hydroxymethyl)-2-oxo-1,2-dihydropyridin-3-carboxamide]"
6.21,6.84,"CCOc1ccn(-c2ccc(F)cc2)c(=O)c1C(=O)Nc1ccc(-c2ccc(O)c(-c3ccnc(N)n3)c2)c(F)c1 [Example 1, N-(3′-(2-aminopyrimidin-4-yl)-2-fluoro-4′-hydroxy-[1,1′-biphenyl]-4-yl)-4-ethoxy-1-(4-fluorophenyl)-2-oxo-1,2-dihydropyridin-3-carboxamide]"
7.15,6.44,"Nc1nccc(-c2cc(Oc3ccc(NC(=O)C4(C(=O)Nc5ccc(F)cc5)CC4)cc3F)ccc2O)n1 [Example 41, N-(4-(3-(2-aminopyrimidin-4-yl)-4-hydroxyphenoxy)-3-fluorophenyl)-N-(4-fluorophenyl)cyclopropan-1,1-dicarboxamide]"
7.17,6.45,"CCOc1ccn(-c2ccc(F)cc2)c(=O)c1C(=O)Nc1ccc(Oc2ccc(O)c(-c3ccncn3)c2)c(F)c1 [Example 54, 4-Ethoxy-N-(3-fluoro-4-(4-hydroxy-3-(pyrimidin-4-yl)phenoxy)phenyl)-1-(4-fluorophenyl)-2-oxo-1,2-dihydropyridin-3-carboxamide]"
